Laboratory results: US10253039B2, “Inhibitors of bacterial DNA gyrase with efficacy against gram-negative bacteria” (priority 2014, dated 2019)
Values after ≈ are worked out from the molar mass of the structure shown. Read-outs that look alike come from different tables or passages of the source.

How the values were obtained:
Type in all cases: cell-based
[1] = tested on: E. coli JW5503 (deltolC); experiment: MIC, 20-strain panel; conditions: Escherichia coli
Summary of the method: (§1)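 CLSI microdilution, LB, 1:10000 inoculum of actively growing culture; 2-fold dilution series in triplicate, DMSO control lane; 37° C., shaking, 16-18 h; endpoint = no visible growth.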

[2] = tested on: Klebsiella pneumoniae subsp. pneumoniae; experiment: MIC, 20-strain panel
Summary of the method: as §1

[3] = tested on: Staphylococcus saprophyticus subsp. saprophyticus; experiment: MIC, 20-strain panel
Summary of the method: as §1

[4] = tested on: Shigella flexneri; experiment: MIC, 20-strain panel
Summary of the method: as §1

[5] = tested on: Streptococcus pyogenes; experiment: MIC, 20-strain panel
Summary of the method: as §1

[6] = tested on: E. coli MG1655; experiment: MIC, 20-strain panel; conditions: Escherichia coli, read-out: MIC
Summary of the method: as §1

[7] = tested on: Streptococcus agalactiae; experiment: MIC, 20-strain panel
Summary of the method: as §1

[8] = tested on: Staphylococcus aureus subsp. aureus; experiment: MIC, 20-strain panel; conditions: read-out: MIC
Summary of the method: as §1

[9] = tested on: Staphylococcus epidermidis; experiment: MIC, 20-strain panel
Summary of the method: as §1

[10] = tested on: Salmonella enterica subsp. enterica typhimurium; experiment: MIC, 20-strain panel
Summary of the method: as §1

[11] = tested on: Edwardsiella tarda; experiment: MIC, microdilution in 96-well plates
Summary of the method: as §1

[12] = tested on: E. coli BW25113; experiment: MIC, microdilution in 96-well plates; conditions: Escherichia coli, read-out: MIC
Summary of the method: as §1

[13] = E: Klebsiella pneumoniae subsp. pneumoniae
[14] = H: Staphylococcus aureus subsp. aureus
[15] = F: Salmonella enterica subsp. enterica Typhimurium
[16] = Klebsiella pneumoniae subsp. pneumoniae
[17] = Staphylococcus aureus subsp. aureus
[18] = Salmonella enterica subsp. enterica Typhimurium

SMILES | MIC ([1]; C: E. coli JW5503 (deltolC)) [µg/mL] | MIC [2, 13] [µg/mL] | MIC [3] [µg/mL] | MIC ([4]; G: Shigella flexneri) [µg/mL] | MIC [5] [µg/mL] | MIC ([6]; MG1655, A: E. coli MG1655) [µg/mL] | MIC [7] [µg/mL] | MIC [8, 14] [µg/mL] | MIC [9] [µg/mL] | MIC [10, 15] [µg/mL] | MIC ([11]; D: Edwardsiella tarda) [µg/mL] | MIC ([12]; BW25113, B: E. coli BW25113) [µg/mL] | MIC ([1]; E. coli JW5503 (deltolC)) [µg/mL] | MIC [2, 16] [µg/mL] | MIC [4] [µg/mL] | MIC ([6]; MG1655, E. coli MG1655) [µg/mL] | MIC [8, 17] [µg/mL] | MIC [10, 18] [µg/mL] | MIC [11] [µg/mL] | MIC ([12]; BW25113, E. coli BW25113) [µg/mL]
CC(C)Oc1ccc(CN2CC[C@@H](NS(=O)(=O)c3cccc4cccnc34)C2)cc1 [Compound 84] | 1 (≈ 2.35 µM) | > 8 | > 8 | > 8 | > 8 | > 8 | > 8 | > 8 | > 8 | > 8 | > 8 | > 8 |  |  |  |  |  |  |  | 
Cc1nn(C)c2ncc(S(=O)(=O)N[C@@H]3CCN(Cc4ccc(OC5CC5)cc4)C3)cc12 [Compound 157] |  |  | > 8 |  | > 8 |  | > 8 |  | > 8 |  |  |  | > 8 | > 8 | > 8 | > 8 | > 8 | > 8 | > 8 | > 8
O=S(=O)(N[C@@H]1CCN(Cc2ccc(OC3CC3)cc2)C1)c1ccc(Cl)cn1 [Compound 132] |  |  | > 8 |  | > 8 |  | > 8 |  | > 8 |  |  |  | > 8 | > 8 | > 8 | > 8 | > 8 | > 8 | > 8 | > 8
O=S(=O)(N[C@@H]1CCN(Cc2ccc(OC3CC3)cc2)C1)c1cc(C(F)(F)F)ccc1F [Compound 168] |  |  | > 8 |  | > 8 |  | > 8 |  | > 8 |  |  |  | 0.25 (≈ 0.545 µM) | > 8 | ~8 (≈ 17.4 µM) | > 8 | > 8 | ~8 (≈ 17.4 µM) | > 8 | > 8
CS(=O)(=O)c1ccc(Cl)c(S(=O)(=O)N[C@@H]2CCN(Cc3ccc(-c4ccccc4)cc3)C2)c1 [Compound 142] |  |  | > 8 |  | > 8 |  | > 8 |  | > 8 |  |  |  | 2 (≈ 3.96 µM) | > 8 | > 8 | > 8 | > 8 | > 8 | > 8 | > 8
CS(=O)(=O)c1ccc(Cl)c(S(=O)(=O)N[C@@H]2CCN(Cc3ccc(OC4CC4)cc3)C2)c1 [Compound 151] |  |  | > 8 |  | > 8 |  | > 8 |  | > 8 |  |  |  | ~8 (≈ 16.5 µM) | > 8 | > 8 | > 8 | > 8 | > 8 | > 8 | > 8
O=S(=O)(N[C@@H]1CCN(Cc2ccc(-n3ccnn3)cc2)C1)c1cccc(OC(F)(F)F)c1 [Compound 33] | > 8 | > 8 | > 8 | > 8 | > 8 | > 8 | > 8 | > 8 | > 8 | > 8 | > 8 | > 8 |  |  |  |  |  |  |  | 
CC(C)Oc1c(Cl)cc(CN2CC[C@@H](NS(=O)(=O)c3cccc(C(F)(F)F)c3)C2)cc1Cl [Compound 98] | > 8 | > 8 | > 8 | > 8 | > 8 | > 8 | > 8 | > 8 | > 8 | > 8 | > 8 | > 8 |  |  |  |  |  |  |  | 
N#Cc1cccc(S(=O)(=O)N[C@@H]2CCN(Cc3ccc(OC4CCCC4)cc3)C2)c1 [Compound 40] | 0.5 (≈ 1.17 µM) | > 8 | > 8 | > 8 | > 8 | > 8 | > 8 | > 8 | > 8 | 4 (≈ 9.4 µM) | > 8 | > 8 |  |  |  |  |  |  |  | 
Cc1ccc(S(=O)(=O)N[C@@H]2CCN(Cc3ccc(OC(C)C)cc3)C2)cc1C#N [Compound 161] |  |  | > 8 |  | > 8 |  | > 8 |  | > 8 |  |  |  | > 8 | > 8 | > 8 | > 8 | > 8 | > 8 | > 8 | > 8
O=S(=O)(N[C@@H]1CCN(Cc2ccc(SC(F)(F)F)cc2)C1)c1cccc(OC(F)(F)F)c1 [Compound 55] | 8 (≈ 16 µM) | > 8 | > 8 | > 8 | > 8 | > 8 | > 8 | > 8 | > 8 | > 8 | > 8 | > 8 |  |  |  |  |  |  |  | 
CC(C)Oc1ccc(CN2CC[C@@H](NS(=O)(=O)c3ccc(Cl)c(C#N)c3)C2)cc1 [Compound 118] | > 8 | > 8 | > 8 | > 8 | > 8 | > 8 | > 8 | > 8 | > 8 | > 8 | > 8 | > 8 |  |  |  |  |  |  |  | 
CC(C)Oc1ccc(CN2CC[C@@H](NS(=O)(=O)c3ccc4c(c3)CC(=O)N4C)C2)cc1 [Compound 179] |  |  | > 8 |  | > 8 |  | > 8 |  | > 8 |  |  |  | > 8 | > 8 | > 8 | > 8 | > 8 | > 8 | > 8 | > 8
COc1ccccc1-c1ccc(CN2CC[C@@H](NS(=O)(=O)c3cccc(C#N)c3)C2)cc1 [Compound 127] | 4 (≈ 8.94 µM) | > 8 | > 8 | > 8 | > 8 | > 8 | > 8 | > 8 | > 8 | > 8 | > 8 | > 8 |  |  |  |  |  |  |  | 
Cc1ccc(S(=O)(=O)N[C@@H]2CCN(Cc3ccc(OC(C)C)cc3)C2)cn1 [Compound 139] |  |  | > 8 |  | > 8 |  | > 8 |  | > 8 |  |  |  | > 8 | > 8 | > 8 | > 8 | > 8 | > 8 | > 8 | > 8
CC(C)Oc1ccc(CN2CC[C@@H](NS(=O)(=O)c3cnccc3Cl)C2)cc1 [Compound 59] | > 8 | > 8 | > 8 | > 8 | > 8 | > 8 | > 8 | > 8 | > 8 | > 8 | > 8 | > 8 |  |  |  |  |  |  |  | 
O=S(=O)(N[C@@H]1CCN(Cc2ccc(OC(F)(F)F)cc2)C1)c1cccc(C(F)(F)F)c1 [Compound 6] | 4 (≈ 8.54 µM) | > 8 | > 8 | > 8 | > 8 | > 8 | > 8 | > 8 | > 8 | > 8 | > 8 | > 8 |  |  |  |  |  |  |  | 
O=S(=O)(N[C@@H]1CCN(Cc2ccc(-c3ccncc3)cc2)C1)c1cccc(OC(F)(F)F)c1 [Compound 15] | 4 (≈ 8.38 µM) | > 8 | > 8 | > 8 | > 8 | > 8 | > 8 | > 8 | > 8 | > 8 | > 8 | > 8 |  |  |  |  |  |  |  | 
Cc1ccncc1S(=O)(=O)N[C@@H]1CCN(Cc2ccc(OC(C)C)cc2)C1 [Compound 121] | ~8 (≈ 20.5 µM) | > 8 | > 8 | > 8 | > 8 | > 8 | > 8 | > 8 | > 8 | > 8 | > 8 | > 8 |  |  |  |  |  |  |  | 
CC(C)Oc1ccc(CN2CC[C@@H](NS(=O)(=O)c3cc(C(F)(F)F)ccc3F)C2)cc1 [Compound 4] | 0.5 (≈ 1.09 µM) | > 8 | > 8 | > 8 | > 8 | > 8 | > 8 | > 8 | > 8 | > 8 | > 8 | > 8 |  |  |  |  |  |  |  | 
CC(=O)c1cccc(S(=O)(=O)N[C@@H]2CCN(Cc3ccc(-c4ccccc4)cc3)C2)c1 [Compound 44] | 0.25 (≈ 0.575 µM) | > 8 | > 8 | > 8 | > 8 | > 8 | > 8 | > 8 | > 8 | 8 (≈ 18.4 µM) | > 8 | > 8 |  |  |  |  |  |  |  | 
CC(=O)c1cccc(S(=O)(=O)N[C@@H]2CCN(Cc3ccc(OC4CC4)cc3)C2)c1 [Compound 134] |  |  | > 8 |  | > 8 |  | > 8 |  | > 8 |  |  |  | 4 (≈ 9.65 µM) | > 8 | > 8 | > 8 | > 8 | ~8 (≈ 19.3 µM) | > 8 | > 8
